According to PMC1971073, “Comparative genomics of bacterial and plant folate synthesis and salvage: predictions and validations” (BMC Genomics, 2007):

Molecular target: T1, Arabidopsis ADCS (PabAa-PabAb) (Arabidopsis thaliana, UniProt Q8LPN3)
T1 construct: bifunctional PabAa-PabAb ADC synthase in pLOI707HE; extract of E. coli BN1163 (pabA pabB mutant)
T1 sequence (Q8LPN3 46-919): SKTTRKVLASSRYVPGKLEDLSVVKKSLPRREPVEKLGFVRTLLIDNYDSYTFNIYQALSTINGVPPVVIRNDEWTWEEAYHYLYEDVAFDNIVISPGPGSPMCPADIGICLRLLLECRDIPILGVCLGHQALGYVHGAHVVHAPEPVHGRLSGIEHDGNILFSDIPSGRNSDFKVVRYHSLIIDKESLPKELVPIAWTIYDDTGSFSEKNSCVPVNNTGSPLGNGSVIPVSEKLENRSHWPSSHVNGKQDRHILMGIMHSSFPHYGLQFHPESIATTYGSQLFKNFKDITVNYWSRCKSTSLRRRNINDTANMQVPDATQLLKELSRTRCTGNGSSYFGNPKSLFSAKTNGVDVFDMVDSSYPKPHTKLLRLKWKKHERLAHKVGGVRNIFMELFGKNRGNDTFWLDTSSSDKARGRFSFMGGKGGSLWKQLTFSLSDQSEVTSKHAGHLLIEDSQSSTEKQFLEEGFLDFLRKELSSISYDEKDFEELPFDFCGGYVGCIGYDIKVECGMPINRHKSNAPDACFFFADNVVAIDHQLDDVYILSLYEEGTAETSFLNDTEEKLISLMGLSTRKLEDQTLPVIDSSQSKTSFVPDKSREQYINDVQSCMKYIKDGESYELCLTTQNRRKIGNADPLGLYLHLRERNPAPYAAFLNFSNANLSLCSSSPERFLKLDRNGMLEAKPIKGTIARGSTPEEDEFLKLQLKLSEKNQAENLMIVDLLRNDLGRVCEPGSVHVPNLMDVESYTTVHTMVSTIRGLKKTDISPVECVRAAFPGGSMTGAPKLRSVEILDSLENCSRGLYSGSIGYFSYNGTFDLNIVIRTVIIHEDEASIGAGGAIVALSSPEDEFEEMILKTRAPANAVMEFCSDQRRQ
Assay: pABA formation in cell extract, coupled to E. coli PabC (ADC lyase), HPLC with fluorescence detection
Format: biochemical
Conditions: E. coli PabC extract added, 37 °C, 1 h

Compound	pABA formation in cell extract, coupled to E. coli PabC (ADC lyase), HPLC with f (chorismate as co-substrate)	pABA formation in cell extract, coupled to E. coli PabC (ADC lyase), HPLC with f (glutamine as amino donor)
NC(=O)CC[C@H](N)C(=O)O [glutamine]	Arabidopsis PabAa-PabAb formed pABA only if PabAc was added	–
C=C(O[C@@H]1C=C(C(=O)O)C=C[C@H]1O)C(=O)O [chorismate]	–	Arabidopsis PabAa-PabAb formed pABA only if PabAc was added
